Assay results from patent US20200038415A1, “AMINOSTEROL COMPOSITIONS AND METHODS OF USING THE SAME FOR TREATING ERECTILE DYSFUNCTION” (Enterin, Inc., priority 2018, published 2020).
Values joined by “and” are separate entries in the source; they are usually repeats but may differ in a detail not shown here. Equal values may be shown once. “Also recorded” adds a separate entry of the source.

Assays:
[1] = test system: PD patients with constipation; assay: CNS symptoms in Stage 2 (UPDRS, MMSE, PDHQ, BDI-II, sleep diary); type: in vivo, human; details: for hallucinations and delusions improved or disappeared during treatment: 6 patients with hallucinations or delusions at baseline
Text: (5) Sleep Diary (participants completed a sleep diary on a daily basis throughout the study. The diaries included time into bed and estimated time to sleep as well as wake time and duration during the night.);
(8) Beck Depression Inventory (BDI-II);
(9) Unified Parkinson's Disease Rating Scale (UPDRS), which consists of 42 items in four subscales (Part I=Non-Motor Aspects of Experiences of Daily Living (nM-EDL) (1.1 cognitive impairment, 1.2 hallucinations and psychosis, 1.3 depressed mood, Part II=Motor Aspects of Experiences of Daily Living (M-EDL), Part III=Motor Examination, and Part IV=Motor Complications;
(10) Mini Mental State Examination (MMSE);
(12) The University of Miami Parkinson's Disease Hallucinations Questionnaire (UM-PDHQ);
Exploratory end-points, in addition to constipation, included for example, (i) depression assessed using the Beck Depression Inventory (BDI-II) (Steer et al. 2000) and Unified Parkinson's Disease Rating Scale (UPDRS); (ii) cognition assessed using the Mini Mental State Examination (MMSE) (Palsteia et al. 2018), Unified Parkinson's Disease Rating Scale (UPDRS), and Trail Making Test (TMT); (iii) sleep and REM-behavior disorder (RBD) using a daily sleep diary, I-Button Temperature Assessment, a REM sleep behavior disorder (RBD) questionnaire (RBDQ) (Stiasny-Kolster et al. 2007), and the UPDRS; (iv) hallucinations assessed using the PD hallucinations questionnaire (PDHQ) (Papapetropoulos et al. 2008), the UPDRS, and direct questioning; (v) fatigue using the Parkinson's Disease Fatigue Scale (PFS-16) and the UPDRS; (vi) motor functions using the UPDRS; and (vii) non-motor functions using the UPDRS.
(§1) Assessments were made at baseline and at the end of the fixed dose and washout periods. Circadian system status was evaluated by continuously monitoring wrist skin temperature (Thermochron iButton DS1921H; Maxim, Dallas) following published procedures (Sarabia et al. 2008).
An exploratory analysis was done with respect to the sleep data, the body temperature data, mood, fatigue, hallucinations, cognition and other motor and non-motor symptoms of PD. Continuous measurements within a subject were compared with a paired t-test and continuous measurements between subject groups were compared with a two-group t-test. Categorical data were compared with a chi-squared test or a Fisher's exact test if the expected cell counts are too small for a chi-squared test.

[2] = test system: PD patients with constipation; assay: Circadian rhythm of wrist skin temperature; type: in vivo, human; details: for circadian rhythm of skin temperature: markers of healthy circadian function (IS, RA, CFI, IV): fixed dose vs baseline, 12 evaluable patients
Description: (6) I-Button Temperature Assessment. The I-Button is a small, rugged self-sufficient system that measures temperature and records the results in a protected memory section. The Thermochron I-Button DS1921H (Maxim Integrated, Dallas, Tex.) was used for skin temperature measurement. I-Buttons were programmed to sample every 10 mins., and attached to a double-sided cotton sport wrist band using Velcro, with the sensor face of the I-Button placed over the inside of the wrist, on the radial artery of the dominant hand. Subjects removed and replaced the data logger when necessary (i.e., to have a bath or shower). The value of skin temperature assessment in sleep research is that the endogenous skin warming resulting from increased skin blood flow is functionally linked to sleep propensity. From the collected data, the mesor, amplitude, acrophase (time of peak temperature), Rayleight test (an index of interdaily stability), mean waveforms are calculated.);
as §1
Circadian rhythm of skin temperature was evaluable in 12 patients (i.e., those who had recordings that extended from baseline through washout). Circadian system functionality was evaluated by continuously monitoring wrist skin temperature using a temperature sensor (Thermochron iButton DS1921H; Maxim, Dallas, Tex.) (Sarabia et al. 2008). […]
Briefly, this analysis includes the following parameters: (i) the inter-daily stability (the constancy of 24-hour rhythmic pattern over days, IS); (ii) intra-daily variability (rhythm fragmentation, IV); (iii) average of 10-minute intervals for the 10 hours with the minimum temperature (L10); (iv) average of 10-minute intervals for the 5 hours with the maximum temperature (M5) and the relative amplitude (RA), which was determined by the difference between M5 and L10, divided by the sum of both. […]

In the case of `CC(C)[C@@H](CC[C@@H](C)[C@H]1CC[C@H]2[C@@H]3[C@H](O)C[C@H]4C[C@@H](NCCCNCCCCN)CC[C@]4(C)[C@H]3CC[C@]12C)OS(=O)(=O)O` (single isomer, unassigned) [squalamine (ENT-01), squalamine], the “hallucinations and delusions improved or disappeared during treatment” value [1] is reported as 5 of 6 and five, the “hallucinations and delusions improved or disappeared during treatment” value ([1]; listed as aminosterol) is reported as “five and 5 of 6” and the “improvement of arm or leg thrashing frequency” value ([1]; baseline 2.2 episodes/week to 0 at maximal dose) is reported as 100%. For the same molecule, the “total sleep time versus baseline” value ([1]; beyond 125 mg) was “consistently higher than baseline”, the “hallucinations/delusions did not return following discontinuation” value ([1]; in 1 patient) was 4 weeks and the “hallucinations/delusions did not return following discontinuation” value ([1]; in another patient) was 2 weeks. The “time free of hallucinations following cessation of dosing” value ([1]; one patient) was 1 month, the “circadian rhythm of skin temperature: markers of healthy circadian function (IS, RA, CFI, IV)” value [2] was “significant positive impact; also recorded: improved all markers of healthy circadian function” and the “circadian rhythm of skin temperature: markers of healthy circadian function (IS, RA, CFI, IV)” value ([2]; listed as Aminosterol) was “improved all markers of healthy circadian function”. For the same molecule, the “circadian parameters during wash-out (IS, CFI)” value ([2]; wash-out period) was “improvement persisted for several of these circadian parameters”.
